The text below walks through data of patent publication US20040204499A1, “Preparation for breast duct fluid collection” (priority 2000, published 2004).

A short description of this series: Clinical trial of breast ductal lavage with topical, subcutaneous and/or intraductal anesthesia; patient-recorded pain and post-procedure notes. Format: in vivo, human.

Protocol: A clinical trial was conducted at several different clinical sites by several different physician practitioners. Sometimes the procedures were conducted by practitioners using topical application of anesthetic, subcutaneous anesthesia injection, sometimes using intraductal anesthesia infusion and sometimes all three. […] Apply EMLATM cream (topical anesthetic cream) to the nipple and areola as described in the package insert. […] Dekeratinize the nipple using gauze and a small amount of Omniprep® paste (dekeratinizing agent) or […] gel. Clean the nipple and areola with alcohol and gauze. […] Before attempting ductal catheterization, identify the ductal orifice under magnification, by using the breast aspirator and/or by gently squeezing on the nipple to yield discharge. Use of an incandescent lamp to warm the nipple may help relax the sphincter, thus making cannulation of the duct easier. […] Prepare the nipple and areola with a suitable disinfectant and perform nipple field block as needed. […] Open the catheter package. For intraductal administration of anesthetic, attach anesthetic syringe to inflow (i.e., lower) port and prime the tubing until fluid is expressed through the catheter body and outflow port; leave the syringe attached. […] Ensure that approximately 1 cm of the guidewire protrudes from the catheter tip. Under magnification assistance, if necessary, introduce the pre-seated guidewire/catheter unit into the desired ductal orifice to confirm the location and orientation of the duct. Advance the catheter gradually until the catheter is seated; remove the wire completely. […] Crimp the outflow tubing to prevent return of the anesthetic into the inflow tube. Administer approximately 1 cc of anesthetic through the inflow port (i.e., lower port). Administer more anesthetic as indicated. Disconnect the syringe and set aside for later use. Twist the plunger of a sterile 10 cc syringe to free the seal and attach the syringe to the outflow port. […] Connect saline filled syringe to the inflow (i.e., lower) port. The catheter is now ready for use. […] When Performing saline ductal lavage (i.e. fluid infusion and return): Crimp the outflow tubing to prevent early return into the outflow syringe. Using a 10 cc syringe filled with saline, gradually infuse saline in 0.5 cc increments, or until there is slight resistance or some discomfort (typically 2-3 mLs). Release the crimp on the outflow tubing. Massage the breast towards the nipple with both hands for 30 seconds, especially over the infused duct, taking care not to dislodge the catheter. Cloudy fluid and/or small air bubbles may collect in the catheter body, indicating fluid flow. Crimp the inflow tubing and apply suction to the outflow tubing. […]

As for `CCN(CC)CC(=O)Nc1c(C)cccc1C` [lidocaine], for the setting “conclusion drawn from Table I”, the “lavage pain, intraductal administration compared to subcutaneous injection of anesthetic” value is recorded as “no greater”. For the same compound, the “pain upon intraductal administration of anesthetic” value (in some cases, particularly practitioner RP) is on record as “very low”. In addition, the post procedure notes entry (patient feedback a day to two weeks after procedure, intraductal lidocaine only) is recorded as “pain”. For the same compound, for the setting “practitioner PS, routine subcutaneous administration in a field block”, the bruising entry is recorded as “highest amount of bruising”.
